Data: patent US20140228440A1, “1-AMINO-ALKYLCYCLOHEXANE DERIVATIVES FOR THE TREATMENT OF INFLAMMATORY SKIN DISEASES” (MERZ PHARMA GmbH & CO. KGaA, priority 2008, published 2014)

Tests used:
[1] = system: Streptococcus pyogenes ATCC 12344; assay: MIC by the agar dilution method; assay type: cell-based; settings: pH 5.5
Experimental: (§1) To assess the anti-microbial potency of Neramexane against bacteria strains which are relevant for atopic dermatitis and localized skin infections (“impetigo”), the minimal inhibitory concentration (MIC) against the following bacteria is established:
(§2) The MICs of the samples are determined using the agar dilution method based on DIN 58940. Petri dishes of 5.5 cm diameter are poured with 2.5 ml of freshly prepared Mueller-Hinton agar 2-fold concentrated (Merck company, Cat-No 1.05437), pH 5.5, maintained in liquid form at 50° C., to which the sample dilutions at various concentrations has been added at 50.0 vol.-%.
(§3) Neramexane-Mesylate is tested in the concentration range of 6.25-1*10^−2%. All test solutions are adjusted to pH 5.5.
(§4) For inoculation, 1 μl of the respective germ suspension is placed on the centre of each agar plate. After drying, inoculated plates are incubated at 36.0±2.0° C. The basis for the length of incubation period is the respective growth control cultivated in parallel.
(§5) The test microbe suspension is prepared by inoculating a few individual colonies of the respective bacteria into sterile saline solution until a turbidity corresponding to the McFarland standard 1.0 (approximately 10^8 cfu/ml) is reached. After that, the test microbe suspensions are further diluted 1:10 with saline solution and the microbial counts (see Table 33) are determined by the surface spread method using a spiral plater.
(§6) The agar plates are incubated under the conditions given in Table 34 and subsequently evaluated. The MIC-values as given represent the lowest concentration of the active substance at which there is no macroscopically visible growth. Minimal, barely visible growth or few small individual colonies are evaluated as inhibition.
(§7) The growth of bacteria is indicated for the duplicate plates by a +(i.e., growth) or a −(i.e., no growth), +− indicates weak growth on both plates or growth on one plate and no growth on the other plate. Both bacteria-strains show appropriate growth on the respective control plate not containing any test compound. No influence of the used diluent (Aqua purifacata) is observed. No contamination is observed on the control-plates. In general it has to be considered that values determined by the used method can vary by a factor of 2 (for 1:2 dilutions).

[2] = system: Staphylococcus aureus ATCC 6538; assay: MIC by the agar dilution method; assay type: cell-based; settings: pH 5.5
Experimental: as §1, §2, §3, §4, §5, §6, §7

growth of bacteria on duplicate plates (MIC determination) ([1]; final concentration 0.01 %): + + | growth of bacteria on duplicate plates (MIC determination) ([1]; final concentration 0.04 %): + + | growth of bacteria on duplicate plates (MIC determination) ([1]; final concentration 0.08 %): − − | growth of bacteria on duplicate plates (MIC determination) ([1]; final concentration 0.16 %): − − | growth of bacteria on duplicate plates (MIC determination) ([1]; final concentration 0.31 %): − − | growth of bacteria on duplicate plates (MIC determination) ([1]; final concentration 0.63 %): − − | growth of bacteria on duplicate plates (MIC determination) ([1]; final concentration 1.56 %): − − | growth of bacteria on duplicate plates (MIC determination) ([1]; final concentration 2.50 %): − − | growth of bacteria on duplicate plates (MIC determination) ([1]; final concentration 3.13 %): − − | growth of bacteria on duplicate plates (MIC determination) ([1]; final concentration 6.25 %): − − | MIC [1]: 0.08% | growth of bacteria on duplicate plates (MIC determination) ([2]; final concentration 0.01 %): + + | growth of bacteria on duplicate plates (MIC determination) ([2]; final concentration 0.04 %): + + | growth of bacteria on duplicate plates (MIC determination) ([2]; final concentration 0.08 %): + + | growth of bacteria on duplicate plates (MIC determination) ([2]; final concentration 0.16 %): + + | growth of bacteria on duplicate plates (MIC determination) ([2]; final concentration 0.31 %): + + | growth of bacteria on duplicate plates (MIC determination) ([2]; final concentration 0.63 %): + − | growth of bacteria on duplicate plates (MIC determination) ([2]; final concentration 1.56 %): − − | growth of bacteria on duplicate plates (MIC determination) ([2]; final concentration 2.50 %): − − | growth of bacteria on duplicate plates (MIC determination) ([2]; final concentration 3.13 %): − − | growth of bacteria on duplicate plates (MIC determination) ([2]; final concentration 6.25 %): − − | MIC [2]: 1.56%
Structure (SMILES): CC1(C)CC(C)(C)CC(C)(N)C1.CS(=O)(=O)O [Neramexane mesylate]
